Where two headings read alike, the source gives them in different places.
Key:
VLA-4 = test: Kinetic analysis of VLA-4 deactivation (LDV-FITC dissociation) in U937 cells with non-desensitizing FPR1 mutant; type: cell-based, human; settings: U937 cells pre-activated through FPR1 mutant, 40 μM, 37°C
Method: Kinetic analysis of the binding and dissociation of the LDV-FITC probe was described previously. Briefly, flow cytometric data were acquired at 37°C while the samples were stirred continuously with a stir bar (Bel-Art Products). First, U937 cells transfected with a non-desensitizing mutant of the Formyl Peptide Receptor FPR1 [43] were analyzed for 30-120 s to establish a baseline. The FPR1 mutant triggers VLA-4 activation, which persists for hundreds of seconds, allowing for integrin deactivation to be detected. Next, the LDV-FITC was added and acquisition was re-established. […] Finally, 40 μM of ICE, forskolin (positive control) or vehicle (negative control) were added. Acquisition was re-established, and data were acquired continuously for up to 1024 s.
Therefore, the transition from low to high affinity state led to increased binding of the probe. This was detected as an increase in the median fluorescence intensity (MFI). VLA-4 deactivation led to the dissociation of the probe and decreased MFI [21].

U937 cells [1] = test: MultiCyt 4-Plex apoptosis assay; type: cell-based, human; settings: for EC50: Homo sapiens, U-937, 24 h
Method: Apoptosis was determined using MultiCyt® 4-Plex Apoptosis Screening Kit (IntelliCyt, cat. 90053). The kit provides four different apoptosis endpoints that include effector caspases 3 and 7 activation, phosphatidylserine surface expression, mitochondrial membrane depolarization and cell membrane integrity. […] Cell membrane damage is detected by the uptake of a proprietary DNA intercalating agent analogous to 7-aminoactinomycin D.
384-well plates (Greiner 784201), pre-loaded with 5 μL cRPMI were stamped using a pintool with 100 nl of DMSO-solubilized compounds from the 100-fold concentrated stock solution. Next, 5 μL U937 cells (2 × 10^6/ml in cRPMI) were added to wells and mixed, and plates were foil-sealed. Compounds (Table 1) were tested in dose response at final concentrations ranging from 15.2 nM to 100 μM (1% DMSO final). Vehicle (DMSO) was used as a negative control. After 24 h incubation under culture conditions, the IntelliCyt MultiCyt 4-Plex Apoptosis Screening Kit was used according to manufacturer's protocol. The data were acquired using iQue Screener Platform (IntelliCyt). Singlet cell populations were analyzed for individual measures of apoptosis, and gates were set based on control histograms.

697 = test: CellTiter-Glo cell viability; type: cell-based; settings: Homo sapiens; overnight, n = 6, ± SEM; read-out: Compound EC50, 697 (cell viability)
Method: (§1) Cell viability was determined with the CellTiter-Glo® Luminescent Cell Viability Assay (Promega). Greiner 655083 had 100 μL cRPMI +/− 4×10^4 cells/well, and dose response curves of compounds ranged from 100 μM to 1.53 nM (1% DMSO). Wells with DMSO-only served as negative controls. Samples were incubated overnight, and the assay was completed according to the manufacturer's protocol. Plates were analyzed using a Victor^3V™ 1420 Multilabel Counter (Perkin Elmer).

MHH Call 3 = test: CellTiter-Glo cell viability; type: cell-based; settings: Homo sapiens; overnight, n = 6, ± SEM; read-out: Compound EC50, MHH Call 3 (cell viability)
Method: as §1

Nalm 6 = test: CellTiter-Glo cell viability; type: cell-based; settings: Homo sapiens, overnight, n = 6, ± SEM, read-out: Compound EC50, Nalm 6 (cell viability)
Method: as §1

RS4;11 = test: CellTiter-Glo cell viability; type: cell-based; settings: Homo sapiens, overnight, n = 6, ± SEM, read-out: Compound EC50, RS4;11 (cell viability)
Method: as §1

Reh = test: CellTiter-Glo cell viability; type: cell-based; settings: Homo sapiens, overnight, n = 6, ± SEM, read-out: Compound EC50, Reh (cell viability)
Method: as §1

Sup B15 = test: CellTiter-Glo cell viability; type: cell-based; settings: Homo sapiens, overnight, n = 6, ± SEM, read-out: Compound EC50, Sup B15 (cell viability)
Method: as §1

U937 cells [2] = test: CellTiter-Glo cell viability; type: cell-based; settings: Homo sapiens, U-937; overnight, n = 8, ± SEM, fit top = 100, bottom = 0, hill slope = −1; read-out: Compound EC50, U937 (cell viability)
Method: as §1

normal human PBMCs = test: CellTiter-Glo cell viability; type: cell-based; settings: PBMC, overnight, n = 6, ± SEM, read-out: Compound EC50, PBMCs (cell viability)
Method: Healthy PBMCs were obtained from volunteers. Mononuclear cells were purified using Mono-Poly resolving medium (MP Biomedicals, cat. 091698049) according to manufacturer's instructions. PBMCs were resuspended in cRPMI and kept on ice prior to use.
as §1

B-ALL cell lines = test: CellTiter-Glo cell viability, all B-ALL cell lines together; type: cell-based, human; settings: Homo sapiens; mean of converged EC50s of six B-ALL lines; read-out: Compound EC50, Mean B-ALL (cell viability)
Method: as §1

[3] = test system: primary B-ALL patient samples; test: CellTiter-Glo cell viability of primary ALL patient samples ex vivo; type: cell-based, human; settings: for EC50: Homo sapiens; for Cell viability vs. vehicle treated sample at lower concentrations: samples from patients no. 1 and no. 5
Method: Bone marrow samples were acquired at diagnosis from pediatric B-ALL patients. Mononuclear cells were enriched by centrifugation in Ficoll-Paque (GE Healthcare, cat. 17-1440-02) and aliquoted for storage in liquid nitrogen until use. Samples were thawed in a 37°C water bath, resuspended in 20% FBS cRPMI, and centrifuged to remove freezing medium. Cells were resuspended in conditioned medium (DMEM, 10% FBS, 50 U/ml penicillin-streptomycin, 2 mM L-glutamine) from HS-5 stromal cell cultures.
as §1
For primary ALL patient samples, media consisted of 50% cRPMI, 50% conditioned DMEM from HS-5 stromal cell cultures and compounds. Cell densities ranged from 28,000-68,000 cells/well, and plates were foil-sealed prior to incubation.

[4] = design: method as in as printed in each cell; settings: previously reported; cited from earlier work
[5] = mean of converged EC50s, read-out: Compound EC50, Means (of the apoptosis endpoints)
[6] = n = 4, ± SEM, read-out: Compound EC50, Active Caspase 3/7 +
[7] = n = 4, ± SEM, read-out: Compound EC50, Annexin-V +
[8] = n = 4, ± SEM, read-out: Compound EC50, Cell membrane damage
[9] = n = 4, ± SEM, read-out: Compound EC50, Mitochondrial depolarization
[10] = mean of converged EC50s of six patient samples, read-out: Compound EC50 (Sample means), cell viability
[11] = primary B-ALL sample, duplicate, ± SEM, read-out: Compound EC50 (Patient no. 1), cell viability
[12] = primary B-ALL sample, duplicate, ± SEM, read-out: Compound EC50 (Patient no. 2), cell viability
[13] = primary B-ALL sample, duplicate, ± SEM, read-out: Compound EC50 (Patient no. 3), cell viability
[14] = primary B-ALL sample, duplicate, ± SEM, read-out: Compound EC50 (Patient no. 4), cell viability
[15] = primary B-ALL sample, duplicate, ± SEM, read-out: Compound EC50 (Patient no. 5), cell viability
[16] = primary B-ALL sample, duplicate, ± SEM, read-out: Compound EC50 (Patient no. 6), cell viability
[17] = even at the highest ICE concentrations

Row | Compound | VLA-4 deactivation (dissociation of LDV-FITC) (VLA-4) | EC50 (U937 cells [1]; [5]) [µM] | EC50 (U937 cells [1]; [8]) [µM] | EC50 (U937 cells [1]; [9]) [µM] | EC50 697 [µM] | EC50 (MHH Call 3) [µM] | EC50 (Nalm 6) [µM] | EC50 (RS4;11) [µM] | EC50 (Reh) [µM] | EC50 (Sup B15) [µM] | EC50 (U937 cells [2]) [µM] | EC50 (normal human PBMCs) [µM] | EC50 (B-ALL cell lines) [µM] | EC50 [3, 10] [µM] | EC50 [3, 11] [µM] | EC50 [3, 12] [µM] | EC50 [3, 13] [µM] | EC50 [3, 15] [µM] | Anticancer effects [4] | Potential mechanism(s) of action [4] | also measured
1 | C=C1C(=O)O[C@H]2[C@H]1CC/C(C)=C/CC[C@@]1(C)O[C@@H]21 [Parthenolide] | exceeded the effects of the positive control, forskolin | 7.44 | 4.34 ± 0.9 | 5.52 ± 1.02 | 1.13 ± 0.31 | 1.97 ± 0.59 | 0.72 ± 0.23 | 3.07 ± 1 | 2.19 ± 1.34 | 1.54 ± 0.36 | 2.86 ± 1.55 | 56 ± 23.3 | 1.77 | 3.15 | 4.72 ± 3.71 | 3.65 ± 1.73 | 3.17 ± 1.44 | 0.92 ± 0.58 | ↓VEGF expression & metastasis [61, 124, 125]; ↑p53 activation [48]; ↓cyclin D1 [61, 122] | ↓NF-κB & AP-1 activation [48, 61, 124, 126, 127]; ↓MAPK/ERK signaling [126, 127]; ↓STAT signaling [128]; ↑ROS[48, 65, 128] | EC50 (U937 cells [1]; [6]): 12.4 ± 2.51 µM; EC50 (U937 cells [1]; [7]): 7.55 ± 1.18 µM; EC50 [3, 14]: 4.13 ± 1.92 µM; EC50 [3, 16]: 2.31 ± 0.78 µM; Cell viability vs. vehicle treated sample at lower concentrations [3]: significant increase in cell viability
2 | O=C1C=C2C(=CCOC2O)O1 (stereo not shown) [Patulin] | exceeded the effects of the positive control, forskolin | 4.95 | 1.54 ± 0.02 | 1.72 ± 0.94 | 0.13 ± 0.04 | 0.53 ± 0.17 | 0.07 ± 0.01 | 1.01 ± 0.22 | 0.33 ± 0.13 | 0.2 ± 0.12 | 3.1 ± 2.22 | 246 ± 181 | 0.38 | 7.36 | 1.79 ± 1.75 | 4.72 ± 2.1 | 0.4 ± 0.29 | 22.5 ± 11.8 | ↓ERK1/2 activation [52, 133]; ↑UPR[52, 133]; ↑intracellular [Ca2+] [134] | ↑ROS, DNA damage [57, 59, 132, 133, 135]; ↓glutathione [133, 135] | EC50 (U937 cells [1]; [6]): 12.8 ± 0.09 µM; EC50 (U937 cells [1]; [7]): 3.75 ± 0.63 µM
3 | C[C@H]1COC2=C1C(=O)C(=O)c1c2ccc2c1CCCC2(C)C [Cryptotanshinone] | rapid and reversible VLA-4 deactivation | 25.8 | 30.7 ± 6.83 | 20.9 ± 6.96 | 67.1 ± 31.8 | 126 ± 35.9 | 70.2 ± 29.9 | 8.36 ± 5.84 | 105 ± 14.6 | 29.2 ± 7.58 | 11.8 ± 6.78 | 11.8 ± 3.11 | 67.7 | 19.1 | 12.9 ± 5.51 | 29.8 ± 8.97 | 14 ± 9.8 | 6.88 ± 2.89 | ↓cyclin D1, Bcl-2 [47, 115, 116]; ↑p53, Chk1, Chk2 [120] | ↓mTOR, STAT3 signaling [116, 117]; ↓eIF-4E [47] | Effect on annexin-V binding (U937 cells [1]; [17]): very small effect; Effect on caspase activation (U937 cells [1]; [17]): very small effect; EC50 [3, 14]: 34.4 ± 5.79 µM; EC50 [3, 16]: 16.6 ± 5.55 µM
4 | Oc1c(I)cc(Cl)c2cccnc12 [Clioquinol] |  | 26.7 | 11.1 ± 0.48 | 17.9 ± 2.3 | 18.6 ± 7.74 | 67.1 ± 22.9 | 24.8 ± 12.1 | 64.4 ± 36.6 | 21.1 ± 4.61 | 15.4 ± 3.51 | 40.6 ± 10.8 | 87.8 ± 46.8 | 35.2 | 58.8 | 60.1 ± 53.5 | 158 ± 84.5 | 8.67 ± 4.84 | 13.8 ± 5.23 | ↓cyclin D1 [110]; ↑p21, p27, p53 [106] | ↓NF-κB activation [108, 112]; ionophore/chelator activity [106, 108, 112]; proteasome inhibition [107, 109] | EC50 (U937 cells [1]; [7]): 51.1 ± 26.2 µM; EC50 [3, 14]: 48 ± 22.9 µM; EC50 [3, 16]: 63.9 ± 41.1 µM; Cell viability vs. vehicle treated sample at lower concentrations [3]: significant increase in cell viability

Source: publication PMC5085131, “Cyclic AMP efflux inhibitors as potential therapeutic agents for leukemia” (Oncotarget, 2016)
